Data from patent US10604514B2, “6-(5-membered heteroaryl)isoquinolin-3-yl carboxamides and preparation and use thereof” (Samumed, LLC, priority 2017, dated 2020).
pEC50: −log10 of the molar value. Like-named read-outs stand apart in the source and are kept apart here.

Assays:
[1] = tested on: Tau phosphorylation at Ser396 (pSer396), SH-SY5Y cells; assay: Tau phosphorylation at Ser396 (pSer396) in SH-SY5Y cells, ELISA/western blot; assay type: cell-based, human; details: Homo sapiens; SH-SY5Y cells, overnight (16-18 h); read-out: pSer396 Tau EC50;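 also: cell lysates probed for reduced Tau pSer396 via ELISA (colorimetric) or western blot (chemiluminescence), both with one shared pSer396 antibody, EC50 for lowering phosphorylation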
[2] = tested on: LL29 cells (primary human fibroblasts derived from IPF patients), α-smooth muscle actin; assay: Inhibition of fibrotic process: αSMA in TGF-β1-treated primary human fibroblasts from IPF patients (LL29 cells); assay type: cell-based; details: Homo sapiens, Fibroblast; for pEC50: 96 h, % αSMA-positive LL29 cells, TGF-β1 20 ng/mL, 4 days
Summary of the method: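 Read-out is the percentage of αSMA-positive cells by high-content imaging, excluding SYTOX green-positive dead/apoptotic cells, normalized to TGF-β1-only wells on the same plate. LL29 cells were exposed for 4 days at 37 °C to 20 ng/mL TGF-β1 plus 11-point, 2-fold compound dilutions in 0.1% DMSO.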

DYRK1A kinase = DYRK1A kinase (Homo sapiens (Human), UniProt Q13627); assay: DYRK1A kinase assay (Ser/Thr 18 peptide Z-lyte, FRET)
Method: Each compound was dissolved in DMSO as a 10 mM stock and used to prepare compound source plates.
This is a non-radioactive assay using fluorescence resonance energy transfer (FRET) between coumarin and fluorescein to detect kinase activity which is represented as a ratio of coumarin emission/fluorescein emission.
The mixture was allowed to incubate with the representative compounds for one hour at room temperature. All reactions were performed in duplicate. Unphosphorylated (“0% Control”) and phosphorylated (“100% control”) forms of Ser/Thr 18 served as control reactions. Additionally, an 11-point dose-response curve of Staurosporine (1 uM top) was run to serve as a positive compound control.
After incubation, Development Reagent A was diluted in Development Buffer then added to the reaction and allowed to further incubate for one hour at room temperature.
The percent phosphorylation was then calculated using the following formula: [1−((Em ratio×F100%)−C100%)/((C0%−C100%)+(Em ratio×(F100%−F0%)))]. Dose-response curves were generated and inhibitory concentration (IC50) values were calculated using non-linear regression curve fit in the Dotmatics' Studies Software (Bishops Stortford, UK).

IL-6 = IL-6 inhibition in LPS-stimulated human peripheral blood mononuclear cells (HTRF); assay type: cell-based; details: Homo sapiens, PBMC; for inhibition at 10 µM: read-out: percent value in parentheses below EC50 >10; for pEC50: IL-6, LPS-stimulated huPBMCs, HTRF
Summary of the method: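 EC50 from a 4-parameter fit of DMSO-normalized HTRF (665/620 nm) IL-6 signal, duplicates. Compound was added to fresh human PBMCs in 1% FBS RPMI for 2 h (top 10 μM, 3-fold, 0.25% DMSO) before 22 h stimulation with LPS at 50 ng/mL, 37 °C.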

[3] = tested on: SW480 colon carcinoma cells; assay: Cell viability assay (CellTiter-Glo) in SW480 cells; assay type: cell-based, human; details: Homo sapiens; for pEC50: 96 h, cell viability, SW480 cells, four days, CellTiter-Glo; for inhibition at 10 µM: SW480, read-out: percent inhibition at 10 μM;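 as to all read-outs here: SW480 cells stably carrying an Sp5-luciferase TCF/LEF reporter, luminescent ATP signal as viability measure, DMSO-treated cells as control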
[4] = tested on: Wnt activity (Sp5-Luc reporter in SW480 colon carcinoma cells); assay: Wnt activity screening assay (Sp5-Luc reporter gene assay); assay type: cell-based, human; details: Homo sapiens; for inhibition at 10 µM: SW480, read-out: percent inhibition at 10 μM; for pEC50: Sp5-Luc reporter, SW480 cells, 36 to 48 hours
Summary of the method: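 Compounds at 10 points (1:3 steps, top 10 μM, 0.1% DMSO final) were incubated 36 to 48 h at 37° C with stable Sp5-Luc SW480 reporter cells in 1% FBS medium. Luciferase luminescence was then read and expressed relative to DMSO-only cells. Four-parameter variable-slope fitting yielded EC50 values.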

GSK3β kinase = GSK3β kinase (Homo sapiens (Human), UniProt P49841); assay: GSK3β kinase assay (Ser/Thr 09 peptide Z-lyte, FRET); assay type: biochemical; details: method text calls the value IC50;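 also: Coumarin/fluorescein emission ratio converted to percent phosphorylation against unphosphorylated (0%) and phosphorylated (100%) controls, 1 h compound incubation at room temperature, 11-point threefold dilutions from 10 µM, run in duplicate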
Chain of GSK3β kinase (P49841 whole entry): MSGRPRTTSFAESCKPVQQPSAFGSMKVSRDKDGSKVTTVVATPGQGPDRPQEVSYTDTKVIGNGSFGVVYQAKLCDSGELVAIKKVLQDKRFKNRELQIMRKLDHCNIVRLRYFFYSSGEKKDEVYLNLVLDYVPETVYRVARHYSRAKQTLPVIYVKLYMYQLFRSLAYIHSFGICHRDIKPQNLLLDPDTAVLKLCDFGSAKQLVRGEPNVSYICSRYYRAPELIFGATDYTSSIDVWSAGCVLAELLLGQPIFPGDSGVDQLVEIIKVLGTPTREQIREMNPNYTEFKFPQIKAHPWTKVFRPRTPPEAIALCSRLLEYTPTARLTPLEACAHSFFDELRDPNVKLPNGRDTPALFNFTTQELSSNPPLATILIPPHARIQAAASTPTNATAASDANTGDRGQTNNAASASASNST

[5] = DYRK1A kinase, method text calls the value IC50

SMILES	pEC50 [1]	pEC50 [2]	pEC50 (DYRK1A kinase; [5])	inhibition at 10 µM (IL-6)	pEC50 (IL-6)	pEC50 [3]	inhibition at 10 µM [4]	pEC50 [4]	pEC50 (GSK3β kinase)	inhibition at 10 µM [3]	pEC50 (DYRK1A kinase)	inhibition at 10 µM ([2]; read-out: percent inhibition at 10 μM)
Cc1nnc(-c2cc(F)c3cnc(NC(=O)[C@H]4CC[C@H](N5CCOCC5)CC4)cc3c2)s1 [Compound 57, trans-N-(8-Fluoro-6-(5-methyl-1,3,4-thiadiazol-2-yl)isoquinolin-3-yl)-4-morpholinocyclohexane-1-carboxamide]	6.87	5.93	8.05	6.1%	< 5.00	5.39	40.1%	< 5.00	7.80			
Cc1cn2c(n1)CN(C(=O)Nc1cc3cc(-c4cnc(C)o4)ccc3cn1)CC2 [Compound 59, 2-Methyl-N-(6-(2-methyloxazol-5-yl)isoquinolin-3-yl)-5,6-dihydroimidazo [1,2-a]pyrazine-7(8H)-carboxamide]	7.46	6.53	8.52		6.89	6.85		5.39	7.82			
Cn1cc(-c2ccc3cnc(NC(=O)N4CCOCC4)cc3c2)nn1 [Compound 60, N-(6-(1-Methyl-1H-1,2,3-triazol-4-yl)isoquinolin-3-yl)morpholine-4-carboxamide]	5.96	5.31	8.15	5.7%	< 5.00	5.39		6.17	7.14			
Cc1nnc(-c2ccc3cnc(NC(=O)N4CCN(C)CC4)cc3c2)s1 [Compound 62, 4-Methyl-N-(6-(5-methyl-1,3,4-thiadiazol-2-yl)isoquinolin-3-yl)piperazine-1-carboxamide]	5.92	5.91	8.15	8.5%	< 5.00	5.44		5.58	7.17			
CN(C)C1CCN(C(=O)Nc2cc3cc(-c4cnn(C)c4)ccc3cn2)CC1 [Compound 63, 4-(Dimethylamino)-N-(6-(1-methyl-1H-pyrazol-4-yl)isoquinolin-3-yl) piperidine-1-carboxamide]	5.51	5.89	7.77		5.32	5.59		6.18	6.33			
Cn1cc(-c2ccc3cnc(NC(=O)N4CCOCC4)cc3c2)cn1 [Compound 64, N-(6-(1-Methyl-1H-pyrazol-4-yl)isoquinolin-3-yl)morpholine-4-carboxamide]	5.54	6.17	8.10		5.33	5.45		6.36	6.28			
CC(C)N1CCN(C(=O)Nc2cc3cc(-c4cnn(C)c4)ccc3cn2)CC1 [Compound 65, 4-isopropyl-N-(6-(1-methyl-1H-pyrazol-4-yl)isoquinolin-3-yl)piperazine-1-carboxamide]	< 5.00	5.63	7.15	4.8%	< 5.00	< 5.00		6.14	5.55	7.3%		
[2H]c1c(NC(=O)C2CCN(C)CC2)ncc2ccc(-c3cnn(C)c3)cc12 [Compound 66, 1-Methyl-N-(6-(1-methyl-1H-pyrazol-4-yl)isoquinolin-3-yl-4-d)piperidine-4-carboxamide]	6.77	6.80			6.00	5.91		5.93	7.28		8.52	
[2H]c1c(NC(=O)CN2CCOCC2)ncc2ccc(-c3cnn(C)c3)cc12 [Compound 68, N-(6-(1-Methyl-1H-pyrazol-4-yl)isoquinolin-3-yl-4-d)-2-morpholinoacetamide]	6.02	5.82			5.39	< 5.00		5.16	7.18	47.2%	8.15	
Cc1ncc(-c2ccc3cnc(NC(=O)[C@H]4CC[C@H](CN5CCOCC5)CC4)cc3c2)o1 [Compound 69, trans-N-(6-(2-methyloxazol-5-yl)isoquinolin-3-yl)-4-(morpholinomethyl)cyclohexane-1-carboxamide]	6.29	6.68	8.52		5.99	5.77		6.03	7.15			
Cc1ncc(-c2ccc3cnc(NC(=O)[C@H]4CC[C@H](CN5CCN(C)CC5)CC4)cc3c2)o1 [Compound 70, trans-N-(6-(2-Methyloxazol-5-yl)isoquinolin-3-yl)-4-((4-methylpiperazin-1-yl)methyl)cyclohexane-1-carboxamide]	6.51	6.91	8.70		6.02	5.76		5.96	7.14			
Cc1nnc(-c2ccc3cnc(NC(=O)N[C@H]4CCN(C)C[C@@H]4F)cc3c2)s1 [Compound 71, 1-((3S,4S)-3-Fluoro-1-methylpiperidin-4-yl)-3-(6-(5-methyl-1,3,4-thiadiazol-2-yl)isoquinolin-3-yl)urea]	6.60	5.33	8.22		5.03	< 5.00	45.6%	< 5.00	7.85	46.7%		
[2H]C1([2H])N(c2cc(C(=O)Nc3cc4cc(-c5cnc(C)n5C)ccc4cn3)ccn2)C([2H])([2H])C([2H])([2H])C([2H])([2H])C1([2H])[2H] [Compound 72, N-(6-(1,2-Dimethyl-1H-imidazol-5-yl)isoquinolin-3-yl)-2-(piperidin-1-yl-d10)isonicotinamide]	5.59	6.03			5.80	6.31		5.48	< 5.00		8.52	
[2H]c1c([2H])c([2H])c(C(=O)Nc2cc3cc(-c4cncn4C)ccc3cn2)c(F)c1[2H] [Compound 80]	< 5.00	5.57			5.12	5.80		6.13	5.59		8.52	
[2H]c1c([2H])c([2H])c(C(=O)Nc2cc3cc(-c4cncn4C)ccc3cn2)c(Cl)c1[2H] [Compound 82]	5.23	< 5.00		47.6%	< 5.00	5.48	29.6%	< 5.00	5.82		8.52	31.2%
[2H]c1c([2H])c(C(=O)Nc2cc3cc(-c4cncn4C)ccc3cn2)c([2H])c([2H])c1Cl [Compound 83, 4-Chloro-N-(6-(1-methyl-1H-imidazol-5-yl)isoquinolin-3-yl)benzamide-2,3,5,6-d4]	< 5.00	6.32			5.95	6.52	29.7%	< 5.00	6.06		8.70	
[2H]C([2H])([2H])c1ccc(C(=O)Nc2cc3cc(-c4cncn4C)ccc3cn2)cc1 [Compound 84, 4-(Methyl-d3)-N-(6-(1-methyl-1H-imidazol-5-yl)isoquinolin-3-yl)benzamide]	5.85	6.20			5.89	6.31	25.5%	< 5.00	5.98		8.70	
[2H]c1c([2H])c(C(=O)Nc2cc3cc(-c4cncn4C)ccc3cn2)c([2H])c([2H])c1C [Compound 85, 4-Methyl-N-(6-(1-methyl-1H-imidazol-5-yl)isoquinolin-3-yl)benzamide-2,3,5,6-d4]	5.85	6.25			5.91	6.31		6.63	6.07		8.70	
[2H]c1c([2H])c(C([2H])([2H])[2H])c([2H])c([2H])c1C(=O)Nc1cc2cc(-c3cncn3C)ccc2cn1 [Compound 86, 4-(Methyl-d3)-N-(6-(1-methyl-1H-imidazol-5-yl)isoquinolin-3-yl) benzamide-2,3,5,6-d4]	5.52	6.25			5.66	6.29		6.46	5.76		8.70	
